Test results published in US20170198006A1, “PRMT5 INHIBITORS AND USES THEREOF” (Epizyme, Inc., priority 2014, published 2017).

Target: T1, PRMT5/MEP50 (Homo sapiens, UniProt O14744)
T1 construct: Flag-PRMT5; made in house; host or cells: Spodoptera frugiperda (SF9), baculovirus
Assay: PRMT5 Biochemical Assay (PRMT5/MEP50 enzyme assay on histone H4 peptide substrate, 3H-SAM Flashplate)
Details: PRMT5 biochemical assay; read-out: Biochemical IC50
Excerpt: S-adenosylmethionine (SAM), S-adenosylhomocysteine (SAH), bicine, KCl, Tween20, dimethylsulfoxide (DMSO), bovine skin gelatin (BSG), and Tris(2-carboxyethyl)phosphine hydrochloride solution (TCEP) were purchased from Sigma-Aldrich at the highest level of purity possible. ^3H-SAM was purchase from American Radiolabeled Chemicals with a specific activity of 80 Ci/mmol. 384-well streptavidin Flashplates were purchased from PerkinElmer.
Peptide representative of human histone H4 residues 1-15 was synthesized with a C-terminal linker-affinity tag motif and a C-terminal amide cap by 21st Century Biochemicals.
The amplified genes were sublconed into pENTR/D/TEV (Life Technologies) and subsequently transferred by Gateway™ attL×attR recombination to pDEST8 baculvirus expression vector (Life Technologies).
Protein over-expression was accomplished by infecting exponentially growing Spodoptera frugiperda (SF9) cell culture at 1.2×10^6 cell/ml with a 5000 fold dilution of BIIC stock. Infections were carried out at 27° C. for 72 hours, harvested by centrifugation, and stored at −80° C. for purification.
Flag-PRMT5/6His-MeP50 was eluted with 300 mM Imidazole in the same buffer.
General Procedure for PRMT5/MEP50 Enzyme Assays on Peptide Substrates.
The assays were all performed in a buffer consisting of 20 mM Bicine (pH=7.6), 1 mM TCEP, 0.005% BSG, and 0.002% Tween20, prepared on the day of use. […] DMSO (1 ul) was added to Columns 11, 12, 23, 24, rows A-H for the maximum signal control and 1 ul of SAH, a known product and inhibitor of PRMT5/MEP50, was added to columns 11, 12, 23, 24, rows I-P for the minimum signal control. A cocktail (40 ul) containing the PRMT5/MEP50 enzyme and the peptide was added by Multidrop Combi (Thermo-Fisher). The compounds were allowed to incubate with PRMT5/MEP50 for 30 min at 25 degrees Celsius, then a cocktail (10 ul) containing ^3H-SAM was added to initiate the reaction (final volume=51 ul). […] The assays were stopped by the addition of non-radioactive SAM (10 ul) to a final concentration of 600 uM, which dilutes the ^3H-SAM to a level where its incorporation into the peptide substrate is no longer detectable. 50 ul of the reaction in the 384-well polypropylene plate was then transferred to a 384-well Flashplate and the biotinylated peptides were allowed to bind to the streptavidin surface for at least 1 hour before being washed three times with 0.1% Tween20 in a Biotek ELx405 plate washer. The plates were then read in a PerkinElmer TopCount plate reader to measure the quantity of ^3H-labeled peptide bound to the Flashplate surface, measured as disintegrations per minute (dpm) or alternatively, referred to as counts per minute (cpm).
Where dpm=disintegrations per minute, cmpd=signal in assay well, and min and max are the respective minimum and maximum signal controls.
Where top and bottom are the normally allowed to float, but may be fixed at 100 or 0 respectively in a 3-parameter fit. The Hill Coefficient normally allowed to float but may also be fixed at 1 in a 3-parameter fit. Y is the % inhibition and X is the compound concentration.

T1 sequence (O14744 with tags, fused parts or gaps): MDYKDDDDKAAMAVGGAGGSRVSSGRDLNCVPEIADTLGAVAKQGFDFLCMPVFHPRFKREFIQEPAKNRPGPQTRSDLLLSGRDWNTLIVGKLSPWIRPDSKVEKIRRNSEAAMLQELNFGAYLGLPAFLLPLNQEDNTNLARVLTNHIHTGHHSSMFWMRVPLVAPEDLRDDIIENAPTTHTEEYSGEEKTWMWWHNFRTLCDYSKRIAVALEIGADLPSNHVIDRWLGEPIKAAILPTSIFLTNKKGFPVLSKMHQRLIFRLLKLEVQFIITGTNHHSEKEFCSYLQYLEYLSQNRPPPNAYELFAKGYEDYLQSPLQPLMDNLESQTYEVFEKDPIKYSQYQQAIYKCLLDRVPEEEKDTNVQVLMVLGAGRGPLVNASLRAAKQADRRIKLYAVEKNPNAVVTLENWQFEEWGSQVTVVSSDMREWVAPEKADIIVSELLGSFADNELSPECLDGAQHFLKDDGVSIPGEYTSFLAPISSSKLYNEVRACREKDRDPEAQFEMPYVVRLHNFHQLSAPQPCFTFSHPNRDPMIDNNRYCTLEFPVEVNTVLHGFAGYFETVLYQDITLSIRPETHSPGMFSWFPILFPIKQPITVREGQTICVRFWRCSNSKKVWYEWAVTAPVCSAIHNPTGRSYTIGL
T1 sequence (Q9BQA1 with tags, fused parts or gaps partner limits assumed): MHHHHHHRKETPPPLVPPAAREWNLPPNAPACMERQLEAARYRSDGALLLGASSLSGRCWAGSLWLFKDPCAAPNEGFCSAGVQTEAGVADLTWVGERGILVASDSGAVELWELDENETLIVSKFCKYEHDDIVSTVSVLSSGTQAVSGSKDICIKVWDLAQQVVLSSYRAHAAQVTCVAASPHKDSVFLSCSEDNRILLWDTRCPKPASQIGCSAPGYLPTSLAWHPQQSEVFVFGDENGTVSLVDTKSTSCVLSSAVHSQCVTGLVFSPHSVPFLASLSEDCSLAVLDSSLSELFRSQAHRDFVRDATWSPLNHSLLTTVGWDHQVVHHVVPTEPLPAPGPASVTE

| Structure (SMILES) | IC50 |
| --- | --- |
| O=C(CC1NC(N2CCc3ccccc3C2)=NC1=O)Nc1ccccc1 (stereo not drawn) [Compound 13-14] | 1 to 10 µM |
| CN(CCNCc1ccco1)C[C@H]1O[C@@H](n2cnc3c(N)ncnc32)[C@H](O)[C@@H]1O [Compound 14-1] | 0.101 to 1 µM |
| CCN1CCN(C2=NC(=O)C(CC(=O)Nc3ccc(C(C)=O)cc3)N2)CC1 (stereo not drawn) [Compound 14-14] | 1 to 10 µM |
| CN(CCNCc1ccccc1F)C[C@H]1O[C@@H](n2cnc3c(N)ncnc32)[C@H](O)[C@@H]1O [Compound 15-1] | < 0.1 µM |
| CCOc1ccc(NC(=O)CC2NC(N3CCN(c4ccccc4F)CC3)=NC2=O)cc1 (stereo not drawn) [Compound 15-14] | 1 to 10 µM |
| CN(CCNCc1ccc(F)cc1)C[C@H]1O[C@@H](n2cnc3c(N)ncnc32)[C@H](O)[C@@H]1O [Compound 16-1] | < 0.1 µM |
| CC(C)c1ccc(NC(=O)CC2NC(N3CCN(c4ccccn4)CC3)=NC2=O)cc1 (stereo not drawn) [Compound 16-14] | 1 to 10 µM |
| CCN(CCN(C)C[C@H]1O[C@@H](n2cnc3c(N)ncnc32)[C@H](O)[C@@H]1O)Cc1ccncc1 [Compound 17-1] | < 0.1 µM |
| CCOC(=O)c1ccc(NC(=O)CC2NC(N3CCN(c4ccccn4)CC3)=NC2=O)cc1 (stereo not drawn) [Compound 17-14] | 1 to 10 µM |
| CC(NCCN(C)C[C@H]1O[C@@H](n2cnc3c(N)ncnc32)[C@H](O)[C@@H]1O)c1ccc(Br)cc1 (stereo partly drawn) [Compound 18-1] | < 0.1 µM |
| O=C(CC1NC(N2CCN(c3ccccc3)CC2)=NC1=O)Nc1ccccc1 (stereo not drawn) [Compound 18-14] | 1 to 10 µM |
| CN(CCNCc1ccc(Cl)cc1F)C[C@H]1O[C@@H](n2cnc3c(N)ncnc32)[C@H](O)[C@@H]1O [Compound 19-1] | 0.101 to 1 µM |
| CCc1ccc(NC(=O)CC2NC(N3CCN(CC)CC3)=NC2=O)cc1 (stereo not drawn) [Compound 19-14] | 1 to 10 µM |
| COc1cccc(CN(C)CCN(C)C[C@H]2O[C@@H](n3cnc4c(N)ncnc43)[C@H](O)[C@@H]2O)c1 [Compound 20-1] | 0.101 to 1 µM |
| COc1ccc(N2CCN(C3=NC(=O)C(CC(=O)Nc4ccc(C(C)=O)cc4)N3)CC2)cc1 (stereo not drawn) [Compound 21-14] | 1 to 10 µM |
| CC(N)CCN(C)C[C@H]1O[C@@H](n2cnc3c(N)ncnc32)[C@H](O)[C@@H]1O (stereo partly drawn) [Compound 22-1] | 0.101 to 1 µM |
| NCCCN(CC[C@H](N)C(=O)O)C[C@H]1O[C@@H](n2cnc3c(N)ncnc32)[C@H](O)[C@@H]1O [Compound 23-1] | < 0.1 µM |
| Cc1ccc(NC(=O)CC2NC(N3CCc4ccccc4C3)=NC2=O)cc1 (stereo not drawn) [Compound 23-14] | 1 to 10 µM |
| NCCCCN(CC[C@H](N)C(=O)O)C[C@H]1O[C@@H](n2cnc3c(N)ncnc32)[C@H](O)[C@@H]1O [Compound 24-1] | < 0.1 µM |
| CCOC(=O)c1ccc(NC(=O)CC2NC(N3CCN(C)CC3)=NC2=O)cc1 (stereo not drawn) [Compound 24-14] | 10 to 50 µM |
| CC(C)N(CCCN)C[C@H]1O[C@@H](n2cnc3c(N)ncnc32)[C@H](O)[C@@H]1O [Compound 25-1] | 0.101 to 1 µM |
| COc1ccc(N2CCN(C3=NC(=O)C(CC(=O)Nc4ccccc4)N3)CC2)cc1 (stereo not drawn) [Compound 25-14] | 10 to 50 µM |
| CC(C)N(CCN)C[C@H]1O[C@@H](n2cnc3c(N)ncnc32)[C@H](O)[C@@H]1O [Compound 26-1] | 0.101 to 1 µM |
| CC(=O)c1ccc(NC(=O)CC2NC(N3CCN(C)CC3)=NC2=O)cc1 (stereo not drawn) [Compound 26-14] | 10 to 50 µM |
| CN(CCN)C[C@H]1O[C@@H](n2cnc3c(N)ncnc32)[C@H](O)[C@@H]1O [Compound 27-1] | 0.101 to 1 µM |
| Cc1ccc(C(=O)CC2NC(N3CCN(C)CC3)=NC2=O)cc1 (stereo not drawn) [Compound 27-14] | 1 to 10 µM |
| CC(CN)N(C)C[C@H]1O[C@@H](n2cnc3c(N)ncnc32)[C@H](O)[C@@H]1O (stereo partly drawn) [Compound 28-1] | 0.101 to 1 µM |
| Cc1ccc(C(=O)CC2NC(N3CCN(Cc4ccccc4)CC3)=NC2=O)cc1 (stereo not drawn) [Compound 28-14] | 1 to 10 µM |
| NCCNC[C@H]1O[C@@H](n2cnc3c(N)ncnc32)[C@H](O)[C@@H]1O [Compound 29-1] | 0.101 to 1 µM |
| Cc1ccc(C(=O)CC2NC(N3CCc4ccccc4C3)=NC2=O)cc1 (stereo not drawn) [Compound 29-14] | 0.101 to 1 µM |
